Test results: patent publication US20060069132A1, “Azolecarboxamide herbicides” (priority 2004, published 2006)

Assays:
soybean = experiment: Test C pre-/postemergence herbicide test; format: in vivo, Glycine max
Method in brief: (§1)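 Seeds were planted and sprayed preemergence with test chemicals in a non-phytotoxic solvent mixture containing surfactant; postemergence treatments went onto plants 2 to 18 cm tall (1- to 4-leaf stage). After 12 to 14 days in a greenhouse, injury was rated visually against untreated controls on a 0–100 scale.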

pigweed = experiment: Test C pre-/postemergence herbicide test; format: in vivo, Amaranthus retroflexus
Method in brief: as §1

corn [1] = experiment: Test C pre-/postemergence herbicide test; format: in vivo, Zea mays
Method in brief: as §1

yellow nutsedge = experiment: Test C pre-/postemergence herbicide test; format: in vivo, Cyperus esculentus
Method in brief: as §1

johnsongrass = experiment: Test C pre-/postemergence herbicide test; format: in vivo, Sorghum halepense
Method in brief: as §1

velvetleaf = experiment: Test C pre-/postemergence herbicide test; format: in vivo, Abutilon theophrasti
Method in brief: as §1

corn [2] = experiment: Test B pre-/postemergence herbicide test; format: in vivo, Zea mays; settings: for Corn plant response rating (0 to 100 scale) / Plant response rating, Corn: 0 = no effect, 100 = complete control, preemergence; for Corn plant response rating: postemergence
Method in brief: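 Plants compared with untreated controls 13–15 days post-treatment and given a visual 0–100 injury score. Applications: preemergence to seeds; postemergence at 1- to 4-leaf (2–18 cm); paddy species flooded, 2-leaf stage. Vehicle non-phytotoxic, surfactant included.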

large crabgrass = experiment: Test C pre-/postemergence herbicide test; format: in vivo, Digitaria sanguinalis
Method in brief: as §1

wild oat = experiment: Test B postemergence herbicide test; format: in vivo, Avena fatua; settings: postemergence
Method in brief: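 Each value is a visual 0–100 response rating taken against controls 13 to 15 days after treatment in the greenhouse. Plants received formulated chemical postemergence at the 1- to 4-leaf stage or, in flooded paddy, at the 2-leaf stage.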

Surinam grass = experiment: Test C pre-/postemergence herbicide test; format: in vivo, Urochloa decumbens
Method in brief: as §1

[3] = 62 g ai/ha, preemergence, scale 0 to 100
[4] = 250 g ai/ha, scale 0-100, preemergence
[5] = 500 g ai/ha, scale 0 to 100 (0 no effect, 100 complete control), visual, 12 to 14 days, preemergence
[6] = 125 g ai/ha, scale 0 (no effect) to 100 (complete control), visual, 12 to 14 days, preemergence
[7] = 125 g ai/ha, visual rating, scale 0 (no effect) to 100 (complete control)
[8] = 500 g ai/ha, scale 0 to 100, 0 is no effect, 100 is complete control
[9] = Postemergence, 500 g ai/ha, scale 0 to 100
[10] = Postemergence, 250 g ai/ha, scale 0 to 100, 0 no effect, 100 complete control
[11] = postemergence, 125 g ai/ha, scale 0 to 100
[12] = postemergence, 62 g ai/ha, scale 0 to 100

Compound: CCn1nc(C(C)(C)C)cc1C(=O)Nc1cc(C(=O)N2CCCC2)ccc1F [Compound 242]
- Plant response rating, Soybean (soybean; [3]): 0
- Plant response rating, Soybean (soybean; [4]): 65
- Plant response rating, Soybean (soybean; [5]): 75
- Plant response rating, Pigweed (pigweed; [3]): 100
- Plant response rating, Pigweed (pigweed; [6]): 100
- Plant response rating, Pigweed (pigweed; [4]): 100
- Plant response rating, Pigweed (pigweed; [5]): 100
- Plant response rating, Corn (corn [1]; [3]): 0
- Plant response rating, Corn (corn [1]; [6]): 0
- Plant response rating, Corn (corn [1]; [4]): 20
- Plant response rating, Corn (corn [1]; [5]): 25
- Plant response rating, Nutsedge, Yellow (yellow nutsedge; [3]): 0
- Plant response rating, Nutsedge, Yellow (yellow nutsedge; [6]): 0
- Plant response rating, Nutsedge, Yellow (yellow nutsedge; [4]): 15
- Plant response rating, Nutsedge, Yellow (yellow nutsedge; [5]): 25
- Plant response rating, Johnsongrass (johnsongrass; [3]): 65
- Plant response rating, Johnsongrass (johnsongrass; [6]): 95
- Plant response rating, Johnsongrass (johnsongrass; [4]): 100
- Plant response rating, Johnsongrass (johnsongrass; [5]): 100
- Plant response rating, Velvetleaf (velvetleaf; [3]): 100
- Plant response rating, Velvetleaf (velvetleaf; [4]): 100
- Plant response rating, Velvetleaf (velvetleaf; [5]): 100
- Corn plant response rating (0 to 100 scale) (corn [2]; 125 g ai/ha): 30
- Plant response rating, Corn (corn [2]; 500 g ai/ha, visual rating): 60
- Corn plant response rating (corn [2]; [7]): 10
- Corn plant response rating (corn [2]; [8]): 40
- Plant response rating, Crabgrass, Large (large crabgrass; [3]): 100
- Plant response rating, Crabgrass, Large (large crabgrass; [6]): 100
- Plant response rating, Crabgrass, Large (large crabgrass; [4]): 100
- Plant response rating, Crabgrass, Large (large crabgrass; [5]): 100
- Oat, Wild plant response rating (wild oat; [7]): 10
- Oat, Wild plant response rating (wild oat; [8]): 30
- Plant response rating, Surinam Grass (Surinam grass; [3]): 85
- Plant response rating, Surinam Grass (Surinam grass; [4]): 95
- Plant response rating, Surinam Grass (Surinam grass; [5]): 100

Compound: CCn1nc(C(C)(C)C)cc1C(=O)Nc1cccc(OC(F)(F)F)c1 [Compound 272]
- Soybean plant response rating (soybean; [9]): 95
- Plant response rating, Soybean (soybean; [10]): 85
- Plant response rating, Soybean (soybean; [11]): 80
- Plant response rating, Soybean (soybean; [12]): 60
- Pigweed plant response rating (pigweed; [9]): 100
- Plant response rating, Pigweed (pigweed; [10]): 100
- Plant response rating, Pigweed (pigweed; [11]): 100
- Plant response rating, Pigweed (pigweed; [12]): 100
- Corn plant response rating (corn [1]; [9]): 20
- Plant response rating, Corn (corn [1]; [10]): 15
- Plant response rating, Corn (corn [1]; [11]): 15
- Plant response rating, Corn (corn [1]; [12]): 10
- Nutsedge, Yellow plant response rating (yellow nutsedge; [9]): 0
- Plant response rating, Nutsedge, Yellow (yellow nutsedge; [10]): 0
- Plant response rating, Nutsedge, Yellow (yellow nutsedge; [11]): 0
- Plant response rating, Nutsedge, Yellow (yellow nutsedge; [12]): 0
- Johnsongrass plant response rating (johnsongrass; [9]): 55
- Plant response rating, Johnsongrass (johnsongrass; [10]): 45
- Plant response rating, Johnsongrass (johnsongrass; [11]): 40
- Plant response rating, Johnsongrass (johnsongrass; [12]): 10
- Velvetleaf plant response rating (velvetleaf; [9]): 100
- Plant response rating, Velvetleaf (velvetleaf; [10]): 100
- Plant response rating, Velvetleaf (velvetleaf; [11]): 95
- Plant response rating, Velvetleaf (velvetleaf; [12]): 85
- Corn plant response rating (0 to 100 scale) (corn [2]; 125 g ai/ha): 0
- Plant response rating, Corn (corn [2]; 500 g ai/ha, visual rating): 10
- Corn plant response rating (corn [2]; [7]): 30
- Corn plant response rating (corn [2]; [8]): 40
- Crabgrass, Large plant response rating (large crabgrass; [9]): 95
- Plant response rating, Crabgrass, Large (large crabgrass; [10]): 80
- Plant response rating, Crabgrass, Large (large crabgrass; [11]): 80
- Plant response rating, Crabgrass, Large (large crabgrass; [12]): 40
- Oat, Wild plant response rating (wild oat; [7]): 60
- Oat, Wild plant response rating (wild oat; [8]): 90
- Surinam Grass plant response rating (Surinam grass; [9]): 60
- Plant response rating, Surinam Grass (Surinam grass; [10]): 35
- Plant response rating, Surinam Grass (Surinam grass; [11]): 10
- Plant response rating, Surinam Grass (Surinam grass; [12]): 5
